The source of these data is patent US20240343733A1, “COMPOUNDS FOR TARGETING DEGRADATION OF IRAK4 PROTEINS” (BIOGEN MA INC., priority 2021, published 2024).

Usually DC50 stands for the midpoint of the concentration-degradation curve. Low readings indicate degradation at low concentration, high ones degradation only at high concentration.

The structures appear in SMILES notation.

The test concerns the target T1, IRAK4 (Homo sapiens, UniProt Q9NWZ3).
T1 construct: 293Tcells expressing HiBiT-tagged IRAK4 were then added into 384-well plates
T1 sequence (Q9NWZ3 1-460): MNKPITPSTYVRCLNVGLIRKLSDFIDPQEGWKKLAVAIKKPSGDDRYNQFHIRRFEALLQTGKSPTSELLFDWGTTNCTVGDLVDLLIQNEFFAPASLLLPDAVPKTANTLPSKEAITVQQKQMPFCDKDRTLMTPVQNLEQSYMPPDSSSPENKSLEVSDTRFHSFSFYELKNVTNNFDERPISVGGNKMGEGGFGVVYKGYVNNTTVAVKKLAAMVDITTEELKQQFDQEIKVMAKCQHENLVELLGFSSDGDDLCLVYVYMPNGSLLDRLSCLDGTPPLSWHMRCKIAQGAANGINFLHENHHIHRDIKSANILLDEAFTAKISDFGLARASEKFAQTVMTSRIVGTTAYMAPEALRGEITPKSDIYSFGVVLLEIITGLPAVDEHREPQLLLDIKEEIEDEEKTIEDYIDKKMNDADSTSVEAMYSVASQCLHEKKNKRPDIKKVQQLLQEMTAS
Description: IRAK4 Degradation Assay, HiBiT Method. It counts as cell-based. The settings on record: 293T cells expressing HiBiT-tagged IRAK4, 6 hours. The method, boiled down: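 Luminescent read-out with Nano-Glo HiBiT lytic reagent after 6 h compound exposure at 37 °C. Cells were HiBiT-IRAK4 knock-in 293T (C-terminal tag), 10,000 per well. Compounds ran as 11-point half-log dilutions from […] highest dose, duplicate wells; DMSO served as negative control.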
The molecule `CC(C)Oc1cc2nn(C3CCN(C(=O)CC4CCN(c5ncc(C6CCC(=O)NC6=O)cc5F)CC4)CC3)cc2cc1C(=O)Nc1cnn2cccnc12` (centres unmarked) [Example 148, 2-(1-(2-(1-(5-(2,6-dioxopiperidin-3-yl)-3-fluoropyridin-2-yl)piperidin-4-yl)acetyl)piperidin-4-yl)-6-isopropoxy-N-(pyrazolo[1,5-a]pyrimidin-3-yl)-2H-indazole-5-carboxamide] returned a DC50 of 10 to 100 nM.

Take `CC(C)Oc1cc2nn(C3CCN(C(=O)CC4CCN(c5ccc(C6CCC(=O)NC6=O)cn5)CC4)CC3)cc2cc1C(=O)Nc1cccn([C@H]2C[C@H]2F)c1=O` (stereo partly drawn) [Example 149, 2-(1-(2-(1-(5-(2,6-dioxopiperidin-3-yl)pyridin-2-yl)piperidin-4-yl)acetyl)piperidin-4-yl)-N-(1-((1S,2R)-2-fluorocyclopropyl)-2-oxo-1,2-dihydropyridin-3-yl)-6-isopropoxy-2H-indazole-5-carboxamide]: the DC50 was below 10 nM.

Turning to `CC(C)Oc1cc2nn(C3CCN(C(=O)CC4CCN(c5ncc6c(n5)n(C)c(=O)n6C5CCC(=O)NC5=O)CC4)CC3)cc2cc1C(=O)Nc1cccn([C@H]2C[C@H]2F)c1=O` (stereo partly drawn) [Example 150, 2-(1-(2-(1-(7-(2,6-dioxopiperidin-3-yl)-9-methyl-8-oxo-8,9-dihydro-7H-purin-2-yl)piperidin-4-yl)acetyl)piperidin-4-yl)-N-(1-((1S,2R)-2-fluorocyclopropyl)-2-oxo-1,2-dihydropyridin-3-yl)-6-isopropoxy-2H-indazole-5-carboxamide], the DC50 was below 10 nM.

As to `CC(C)Oc1cc2nn(C3CCN(C(=O)CC4CCN(c5ncc(C6CCC(=O)NC6=O)cc5F)CC4)CC3)cc2cc1C(=O)Nc1cccn([C@H]2C[C@H]2F)c1=O` (stereo partly drawn) [Example 151, 2-(1-(2-(1-(5-(2,6-dioxopiperidin-3-yl)-3-fluoropyridin-2-yl)piperidin-4-yl)acetyl)piperidin-4-yl)-N-(1-((1S,2R)-2-fluorocyclopropyl)-2-oxo-1,2-dihydropyridin-3-yl)-6-isopropoxy-2H-indazole-5-carboxamide], the DC50 is below 10 nM.

Consider `CC(C)Oc1cc2nn(C3CCN(C(=O)CC4(O)CCN(c5ncc(C6CCC(=O)NC6=O)cc5F)CC4)CC3)cc2cc1C(=O)Nc1cccn([C@H]2C[C@H]2F)c1=O` (stereo partly drawn) [Example 152, 2-(1-(2-(1-(5-(2,6-dioxopiperidin-3-yl)-3-fluoropyridin-2-yl)-4-hydroxypiperidin-4-yl)acetyl)piperidin-4-yl)-N-(1-((S,2R)-2-fluorocyclopropyl)-2-oxo-1,2-dihydropyridin-3-yl)-6-isopropoxy-2H-indazole-5-carboxamide], for which the DC50 was below 10 nM.

On to `CC(C)Oc1cc2nn(C3CCN(C(=O)NC4CCN(c5ncc(C6CCC(=O)NC6=O)cc5F)CC4)CC3)cc2cc1C(=O)Nc1cccn([C@H]2C[C@H]2F)c1=O` (stereo partly drawn) [Example 154, 2-(1-((1-(5-(2,6-dioxopiperidin-3-yl)-3-fluoropyridin-2-yl)piperidin-4-yl)carbamoyl)piperidin-4-yl)-N-(1-((1S,2R)-2-fluorocyclopropyl)-2-oxo-1,2-dihydropyridin-3-yl)-6-isopropoxy-2H-indazole-5-carboxamide], for which the DC50 is below 10 nM.

`CC(C)Oc1cc2nn(C3CCN(C(=O)N(C)C4CCN(c5ncc(C6CCC(=O)NC6=O)cc5F)CC4)CC3)cc2cc1C(=O)Nc1cccn([C@H]2C[C@H]2F)c1=O` (stereo partly drawn) [Example 155, 2-(1-((1-(5-(2,6-dioxopiperidin-3-yl)-3-fluoropyridin-2-yl)piperidin-4-yl)(methyl)carbamoyl)piperidin-4-yl)-N-(1-((1S,2R)-2-fluorocyclopropyl)-2-oxo-1,2-dihydropyridin-3-yl)-6-isopropoxy-2H-indazole-5-carboxamide] had a DC50 of 10 to 100 nM.

As to `CC(C)Oc1cc2nn(C3CCN(C(=O)OC4CCN(c5ncc(C6CCC(=O)NC6=O)cc5F)CC4)CC3)cc2cc1C(=O)Nc1cccn([C@H]2C[C@H]2F)c1=O` (stereo partly drawn) [Example 156, 1-(5-(2,6-dioxopiperidin-3-yl)-3-fluoropyridin-2-yl)piperidin-4-yl 4-(5-((1-((1S,2R)-2-fluorocyclopropyl)-2-oxo-1,2-dihydropyridin-3-yl)carbamoyl)-6-isopropoxy-2H-indazol-2-yl)piperidine-1-carboxylate], the DC50 lay in the range of 10 to 100 nM.

As to `CC(C)Oc1cc2nc(C3CCN(C(=O)NC4CCN(c5ccc(C6CCC(=O)NC6=O)cn5)CC4)CC3)cn2cc1C(=O)Nc1cnn2cccnc12` (centres unmarked) [Example 157, 2-[1-[[1-[5-(2,6-dioxo-3-piperidyl)-2-pyridyl]-4-piperidyl]carbamoyl]-4-piperidyl]-7-isopropoxy-N-pyrazolo[1,5-a]pyrimidin-3-yl-imidazo[1,2-a]pyridine-6-carboxamide], the DC50 is below 10 nM.

Consider `CC(C)Oc1cc2nc(C3CCN(C(=O)NC4CCN(c5ncc(C6CCC(=O)NC6=O)cc5F)CC4)CC3)cn2cc1C(=O)Nc1cnn2cccnc12` (centres unmarked) [Example 158, 2-(1-((1-(5-(2,6-dioxopiperidin-3-yl)-3-fluoropyridin-2-yl)piperidin-4-yl)carbamoyl)piperidin-4-yl)-7-isopropoxy-N-(pyrazolo[1,5-a]pyrimidin-3-yl)imidazo[1,2-a]pyridine-6-carboxamide], for which the DC50 was below 10 nM.

As for `CC(C)Oc1cc2nc(C3CCN(C(=O)CC4CCN(c5ccc(C6CCC(=O)NC6=O)cn5)CC4)CC3)cn2cc1C(=O)Nc1cccn([C@H]2C[C@H]2F)c1=O` (stereo partly drawn) [Example 160, 2-(1-(2-(1-(5-(2,6-dioxopiperidin-3-yl)pyridin-2-yl)piperidin-4-yl)acetyl)piperidin-4-yl)-N-(1-((1S,2R)-2-fluorocyclopropyl)-2-oxo-1,2-dihydropyridin-3-yl)-7-isopropoxyimidazo[1,2-a]pyridine-6-carboxamide], the DC50 was below 10 nM.

Molecule `CC(C)Oc1cc2nc(C3CCN(C(=O)CC4CCN(c5ncc(C6CCC(=O)NC6=O)cc5F)CC4)CC3)cn2cc1C(=O)Nc1cccn([C@H]2C[C@H]2F)c1=O` (stereo partly drawn) [Example 161, 2-(1-(2-(1-(5-(2,6-dioxopiperidin-3-yl)-3-fluoropyridin-2-yl)piperidin-4-yl)acetyl)piperidin-4-yl)-N-(1-((1S,2R)-2-fluorocyclopropyl)-2-oxo-1,2-dihydropyridin-3-yl)-7-isopropoxyimidazo[1,2-a]pyridine-6-carboxamide] returned a half-maximal degradation concentration (DC50) of 10 to 100 nM.

Take `CC(C)Oc1cc2nc(C3CCN(C(=O)CN4CCN(c5ccc(C6CCC(=O)NC6=O)cn5)CC4)CC3)cn2cc1C(=O)Nc1cccn([C@H]2C[C@H]2F)c1=O` (stereo partly drawn) [Example 163, 2-(1-(2-(4-(5-(2,6-dioxopiperidin-3-yl)pyridin-2-yl)piperazin-1-yl)acetyl)piperidin-4-yl)-N-(1-((1S,2R)-2-fluorocyclopropyl)-2-oxo-1,2-dihydropyridin-3-yl)-7-isopropoxyimidazo[1,2-a]pyridine-6-carboxamide]: the DC50 was below 10 nM.

For `CC(C)Oc1cc2nc(C3CCN(C(=O)CCCNc4ccc(C5CCC(=O)NC5=O)cn4)CC3)cn2cc1C(=O)Nc1cccn([C@H]2C[C@H]2F)c1=O` (stereo partly drawn) [Example 164, 2-(1-(4-((5-(2,6-dioxopiperidin-3-yl)pyridin-2-yl)amino)butanoyl)piperidin-4-yl)-N-(1-((1S,2R)-2-fluorocyclopropyl)-2-oxo-1,2-dihydropyridin-3-yl)-7-isopropoxyimidazo[1,2-a]pyridine-6-carboxamide], the DC50 lay within 10 to 100 nM.

The molecule `CC(C)Oc1cc2nc(C3CCN(C(=O)CCCCNc4ccc(C5CCC(=O)NC5=O)cn4)CC3)cn2cc1C(=O)Nc1cccn([C@H]2C[C@H]2F)c1=O` (stereo partly drawn) [Example 165, 2-(1-(5-((5-(2,6-dioxopiperidin-3-yl)pyridin-2-yl)amino)pentanoyl)piperidin-4-yl)-N-(1-((1S,2R)-2-fluorocyclopropyl)-2-oxo-1,2-dihydropyridin-3-yl)-7-isopropoxyimidazo[1,2-a]pyridine-6-carboxamide] gave a DC50 of 10 to 100 nM.

As to `CC(C)Oc1cc2nc([C@H]3CC[C@H](CN4CCC(c5ccc(OC6CCC(=O)NC6=O)cc5)CC4)CC3)cn2cc1C(=O)Nc1cccn(C2CC2)c1=O` (some centres unmarked) [Example 166, N-(1-cyclopropyl-2-oxo-1,2-dihydropyridin-3-yl)-2-((1r,4r)-4-((4-(4-((2,6-dioxopiperidin-3-yl)oxy)phenyl)piperidin-1-yl)methyl)cyclohexyl)-7-isopropoxyimidazo[1,2-a]pyridine-6-carboxamide], the DC50 lay in the range of 10 to 100 nM.

Molecule `CC(C)Oc1cc2nc([C@H]3CC[C@H](CN4CCC(c5ccc6c(c5)n(C)c(=O)n6C5CCC(=O)NC5=O)CC4)CC3)cn2cc1C(=O)Nc1cccn(C2CC2)c1=O` (some centres unmarked) [Example 167, N-(1-cyclopropyl-2-oxo-1,2-dihydropyridin-3-yl)-2-((1r,4r)-4-((4-(1-(2,6-dioxopiperidin-3-yl)-3-methyl-2-oxo-2,3-dihydro-1H-benzo[d]imidazol-5-yl)piperidin-1-yl)methyl)cyclohexyl)-7-isopropoxyimidazo[1,2-a]pyridine-6-carboxamide] showed a DC50 below 10 nM.
